According to ChEMBL document CHEMBL1142788, “Synthesis and antibacterial activity of alkyl derivatives of the glycopeptide antibiotic A40926 and their amides” (2005):
Converted amounts (≈) assume the structure as drawn.

Legend:
[1] = system: Staphylococcus haemolyticus; experiment: Minimum inhibitory concentration against Staphylococcus haemolyticus in the presence of 30% bovine serum; type: functional
[2] = system: Staphylococcus epidermidis; experiment: Minimum inhibitory concentration against methicillin-sensitive Staphylococcus epidermidis in the presence of 30% bovine serum; type: functional
[3] = system: Enterococcus faecalis; experiment: Minimum inhibitory concentration against vancomycin-sensitive Enterococcus faecalis in the presence of 30% bovine serum (n=3); type: functional
[4] = system: Enterococcus faecalis; experiment: Minimum inhibitory concentration against vancomycin-A Enterococcus faecalis in the presence of 30% bovine serum (n=4); type: functional
[5] = system: Enterococcus faecium; experiment: Minimum inhibitory concentration against vancomycin-sensitive Enterococcus faecium in the presence of 30% bovine serum(n=1); type: functional
[6] = system: Enterococcus faecium; experiment: Minimum inhibitory concentration against vancomycin-A Enterococcus faecium in the presence of 30% bovine serum (n=1) (range = 4-8mg/L); type: functional
[7] = system: Staphylococcus aureus; experiment: Minimum inhibitory concentration against methicillin-resistant Staphylococcus aureus
[8] = system: Staphylococcus aureus; experiment: Minimum inhibitory concentration against methicillin-sensitive Staphylococcus aureus
[9] = system: Staphylococcus epidermidis; experiment: Minimum inhibitory concentration against methicillin-resistant Staphylococcus epidermidis in the presence of 30% bovine serum; type: functional
[10] = system: Enterococcus faecalis; experiment: Minimum inhibitory concentration against vancomycin-A Enterococcus faecalis in the presence of 30% bovine serum(n=4) (range = 1-16mg/L); type: functional
[11] = system: Enterococcus faecium; experiment: Minimum inhibitory concentration against vancomycin-A Enterococcus faecium in the presence of 30% bovine serum (n=1) (range = 2-32mg/l); type: functional
[12] = system: Enterococcus faecalis; experiment: Minimum inhibitory concentration against vancomycin-sensitive Enterococcus faecalis in the presence of 30% bovine serum(n=3)(range = >=0.125-0.25mg/l); type: functional
[13] = system: Enterococcus faecium; experiment: Minimum inhibitory concentration against vancomycin-A Enterococcus faecium in the presence of 30% bovine serum (n=1) (128>128mg/L); type: functional
[14] = system: Enterococcus faecalis; experiment: Minimum inhibitory concentration against vancomycin-sensitive Enterococcus faecalis in the presence of 30% bovine serum(n=3) (range = 0.25-1mg/l); type: functional
[15] = system: Enterococcus faecium; experiment: Minimum inhibitory concentration against vancomycin-A Enterococcus faecium in the presence of 30% bovine serum (n=1) (range = 2>128mg/l); type: functional
[16] = system: Staphylococcus aureus; experiment: Minimum inhibitory concentration against methicillin-sensitive Staphylococcus aureus without serum
[17] = system: Enterococcus faecalis; experiment: Minimum inhibitory concentration against vancomycin-A Enterococcus faecalis (n=4) (range = 0.25-8mg/L)
[18] = system: Enterococcus faecium; experiment: Minimum inhibitory concentration against vancomycin-A Enterococcus faecium in the presence of 30% bovine serum (n=1) (range = 0.125-16mg/l); type: functional

**Q.** What does the source list for `CCCCCCCCCCc1ccc(CNC2[C@H](Oc3c4cc5cc3Oc3ccc(cc3Cl)[C@@H](O)C3NC(=O)[C@H](NC(=O)[C@@H]5NC(=O)[C@H]5NC(=O)[C@@H](Cc6ccc(cc6)O4)NC(=O)[C@H](NC)c4ccc(O)c(c4)Oc4cc(O)c(Cl)c5c4)c4ccc(O)c(c4)-c4c(O[C@H]5O[C@H](CO)[C@@H](O)[C@H](O)[C@@H]5O)cc(O)cc4[C@@H](C(=O)NCCCN(C)C)NC3=O)OC(C(=O)NCCCN(C)C)C(O)[C@@H]2O)cc1` (stereo partly drawn)?
**A.** MIC [1]: 2 µg/mL; MIC [2]: 1 µg/mL; MIC [3]: 0.25 µg/mL; MIC [4]: 4 µg/mL; MIC [5]: 0.25 µg/mL; MIC [6]: 8 µg/mL; MIC [7]: 2 µg/mL (≈ 1.03 µM)

**Q.** `CN(C)CCCNC(=O)C1O[C@@H](Oc2c3cc4cc2Oc2ccc(cc2Cl)[C@@H](O)C2NC(=O)[C@H](NC(=O)[C@@H]4NC(=O)[C@H]4NC(=O)[C@@H](Cc5ccc(cc5)O3)NC(=O)[C@H](N(C)Cc3ccc(-c5ccccc5)cc3)c3ccc(O)c(c3)Oc3cc(O)c(Cl)c4c3)c3ccc(O)c(c3)-c3c(O[C@H]4O[C@H](CO)[C@@H](O)[C@H](O)[C@@H]4O)cc(O)cc3[C@@H](C(=O)NCCCN(C)C)NC2=O)C(NCc2ccc(-c3ccccc3)cc2)[C@@H](O)C1O` (stereo partly drawn) was tested. Which MIC [1] did it give?
**A.** 2 µg/mL

**Q.** What about the MIC [2] of the same molecule?
**A.** 0.25 µg/mL

**Q.** And the MIC [3]?
**A.** 0.25 µg/mL

**Q.** What about the MIC [5] of the same molecule?
**A.** 0.5 µg/mL

**Q.** And the MIC [8]?
**A.** 1 µg/mL (≈ 0.488 µM)

**Q.** What about the MIC [9] of the same molecule?
**A.** 1 µg/mL

**Q.** And the MIC [10]?
**A.** 4 µg/mL

**Q.** And the MIC [7]?
**A.** 1 µg/mL (≈ 0.488 µM)

**Q.** What about the MIC [11] of the same molecule?
**A.** 32 µg/mL

**Q.** `CCCCCCC(CCCC)CNC1[C@H](Oc2c3cc4cc2Oc2ccc(cc2Cl)[C@@H](O)C2NC(=O)[C@H](NC(=O)[C@@H]4NC(=O)[C@H]4NC(=O)[C@@H](Cc5ccc(cc5)O3)NC(=O)[C@H](NC)c3ccc(O)c(c3)Oc3cc(O)c(Cl)c4c3)c3ccc(O)c(c3)-c3c(O[C@H]4O[C@H](CO)[C@@H](O)[C@H](O)[C@@H]4O)cc(O)cc3[C@@H](C(=O)O)NC2=O)OC(C(=O)O)C(O)[C@@H]1O` (stereo partly drawn) was tested. Which MIC [1] did it give?
**A.** 32 µg/mL

**Q.** What about the MIC [2] of the same molecule?
**A.** 2 µg/mL

**Q.** What about the MIC [12] of the same molecule?
**A.** ≤ 0.125 µg/mL

**Q.** What about the MIC [4] of the same molecule?
**A.** > 128 µg/mL

**Q.** What about the MIC [5] of the same molecule?
**A.** 1 µg/mL

**Q.** What about the MIC [8] of the same molecule?
**A.** 4 µg/mL (≈ 2.33 µM)

**Q.** What about the MIC [9] of the same molecule?
**A.** 32 µg/mL

**Q.** And the MIC [13]?
**A.** > 128 µg/mL

**Q.** And the MIC [7]?
**A.** 2 µg/mL (≈ 1.16 µM)

**Q.** How did the MIC [14] turn out when `CN(Cc1ccc(C(=O)Oc2ccccc2)cc1)[C@H]1C(=O)N[C@@H]2Cc3ccc(cc3)Oc3cc4cc(c3O[C@@H]3OC(C(=O)O)C(O)[C@H](O)C3NCc3ccc(C(=O)Oc5ccccc5)cc3)Oc3ccc(cc3Cl)[C@@H](O)C3NC(=O)[C@H](NC(=O)[C@@H]4NC(=O)[C@@H](NC2=O)c2cc(cc(O)c2Cl)Oc2cc1ccc2O)c1ccc(O)c(c1)-c1c(O[C@H]2O[C@H](CO)[C@@H](O)[C@H](O)[C@@H]2O)cc(O)cc1[C@@H](C(=O)O)NC3=O` (stereo partly drawn) was run?
**A.** 1 µg/mL

**Q.** What about the MIC [1] of the same molecule?
**A.** 64 µg/mL

**Q.** What about the MIC [2] of the same molecule?
**A.** 4 µg/mL

**Q.** What about the MIC [15] of the same molecule?
**A.** > 128 µg/mL

**Q.** And the MIC [4]?
**A.** 4 µg/mL

**Q.** And the MIC [5]?
**A.** 1 µg/mL

**Q.** And the MIC [9]?
**A.** 16 µg/mL

**Q.** What about the MIC [7] of the same molecule?
**A.** 2 µg/mL (≈ 1.01 µM)

**Q.** And the MIC [16]?
**A.** 2 µg/mL (≈ 1.01 µM)

**Q.** What does the source list for `CCCCOc1ccc(CNC2[C@H](Oc3c4cc5cc3Oc3ccc(cc3Cl)[C@@H](O)C3NC(=O)[C@H](NC(=O)[C@@H]5NC(=O)[C@H]5NC(=O)[C@@H](Cc6ccc(cc6)O4)NC(=O)[C@H](N(C)Cc4ccc(OCCCC)cc4)c4ccc(O)c(c4)Oc4cc(O)c(Cl)c5c4)c4ccc(O)c(c4)-c4c(O[C@H]5O[C@H](CO)[C@@H](O)[C@H](O)[C@@H]5O)cc(O)cc4[C@@H](C(=O)NCCCN(C)C)NC3=O)OC(C(=O)NCCCN(C)C)C(O)[C@@H]2O)cc1` (stereo partly drawn)?
**A.** MIC [1]: 1 µg/mL; MIC [2]: < 0.125 µg/mL; MIC [3]: < 0.125 µg/mL; MIC [17]: 8 µg/mL (≈ 3.92 µM); MIC [5]: 0.125 µg/mL; MIC [18]: > 16 µg/mL; MIC [8]: 0.25 µg/mL (≈ 0.122 µM); MIC [9]: 0.5 µg/mL; MIC [7]: 1 µg/mL (≈ 0.489 µM)
